Assay results taken from patent US20200138890A1, “PHARMACEUTICAL COMPOSITION FOR PREVENTION AND TREATMENT OF PROSTATIC HYPERPLASIA AND ERECTILE DYSFUNCTION CAUSED BY ANDROPAUSE COMPRISING EXTRACT OF LESPEDEZA CUNEATA AND TRIGONELLAE SEMEN” (DUHANBIO CO., LTD., priority 2017, published 2020).
Counter-ions that a name gives are not always drawn.

What was measured:
[1] = test system: male SPF New Zealand albino rabbits; assay: Erectile promoting effect in vivo (erection start time and duration); design: species or system rabbit; details: oral, Examples 50 mg/kg, sildenafil citrate 20 mg/kg
Method: Based on the above results, the effects on erectile promotion of the compositions of Examples 6 to 9 of the present invention in vivo were measured. At this time, sildenafil citrate was used as a positive control group. Specifically, as experimental animals, six male SPF New Zealand albino rabbits (about 3.5 to 4.0 kg body weight, Samtako, Korea) per test group were used, and these rabbits were placed in cages and fed a constant amount of conventional solid feed for rabbits and water under the same condition for 4 days or more. The rabbit was fasted for 48 hours or more and then used for the test. When fasting, the rabbits were allowed to drink water freely. To the rabbit prepared as described above, the compositions of Examples 6 to 9 of the present invention were orally administered at a dose of 50 mg/kg per animal. Meanwhile, sildenafil citrate, a positive control group, was orally administered at a dose of 20 mg/kg. After administration as described above, the erection start time and duration were measured.

[2] = test system: male SD rats with prostate gland hypertrophy induced by testosterone; assay: Inhibition of prostatic hyperplasia in vivo (testosterone-induced prostate gland hypertrophy, prostate weight); details: testosterone 3 mg/kg/day s.c.; Examples 50 mg/kg oral, finasteride 2 mg/kg oral, 3 weeks
Excerpt: At this time, finasteride was used as the positive control group.
On the day of the last administration, the animals were weighed and then sacrificed, and blood was collected and the prostate glands were excised.

[3] = listed as positive control group

Row | SMILES | Erection maintenance time ([1]; listed as Control group) [min] | Erection start time ([1]; listed as Control group) [min] | Maximum Erection time ([1]; listed as Control group) [min] | Erection maintenance time [1, 3] [min] | Erection start time [1, 3] | Maximum Erection time [1, 3] | Prostate gland weight [2] [g] | Prostate gland/body weight (%) [2] [%]
1 | CCCc1nn(C)c2c(=O)[nH]c(-c3cc(S(=O)(=O)N4CCN(C)CC4)ccc3OCC)nc12 [sildenafil citrate] | 120 ± 5 | 6.2 ± 1.1 | 19 ± 1 | 120 | about 6 Min. | about 19 Min. |  | 
2 | CC(C)(C)NC(=O)[C@H]1CC[C@H]2[C@@H]3CC[C@H]4NC(=O)C=C[C@]4(C)[C@H]3CC[C@]12C [Finasteride, finasteride] |  |  |  |  |  |  | 0.92 ± 0.11 | 0.24 ± 0.02
